The record followed here is patent publication US9359367B2, “Tetrahydroquinazolinone derivatives as PARP inhibitors” (Lupin Limited, priority 2012, dated 2016).

T1 sequence (P09874 whole entry): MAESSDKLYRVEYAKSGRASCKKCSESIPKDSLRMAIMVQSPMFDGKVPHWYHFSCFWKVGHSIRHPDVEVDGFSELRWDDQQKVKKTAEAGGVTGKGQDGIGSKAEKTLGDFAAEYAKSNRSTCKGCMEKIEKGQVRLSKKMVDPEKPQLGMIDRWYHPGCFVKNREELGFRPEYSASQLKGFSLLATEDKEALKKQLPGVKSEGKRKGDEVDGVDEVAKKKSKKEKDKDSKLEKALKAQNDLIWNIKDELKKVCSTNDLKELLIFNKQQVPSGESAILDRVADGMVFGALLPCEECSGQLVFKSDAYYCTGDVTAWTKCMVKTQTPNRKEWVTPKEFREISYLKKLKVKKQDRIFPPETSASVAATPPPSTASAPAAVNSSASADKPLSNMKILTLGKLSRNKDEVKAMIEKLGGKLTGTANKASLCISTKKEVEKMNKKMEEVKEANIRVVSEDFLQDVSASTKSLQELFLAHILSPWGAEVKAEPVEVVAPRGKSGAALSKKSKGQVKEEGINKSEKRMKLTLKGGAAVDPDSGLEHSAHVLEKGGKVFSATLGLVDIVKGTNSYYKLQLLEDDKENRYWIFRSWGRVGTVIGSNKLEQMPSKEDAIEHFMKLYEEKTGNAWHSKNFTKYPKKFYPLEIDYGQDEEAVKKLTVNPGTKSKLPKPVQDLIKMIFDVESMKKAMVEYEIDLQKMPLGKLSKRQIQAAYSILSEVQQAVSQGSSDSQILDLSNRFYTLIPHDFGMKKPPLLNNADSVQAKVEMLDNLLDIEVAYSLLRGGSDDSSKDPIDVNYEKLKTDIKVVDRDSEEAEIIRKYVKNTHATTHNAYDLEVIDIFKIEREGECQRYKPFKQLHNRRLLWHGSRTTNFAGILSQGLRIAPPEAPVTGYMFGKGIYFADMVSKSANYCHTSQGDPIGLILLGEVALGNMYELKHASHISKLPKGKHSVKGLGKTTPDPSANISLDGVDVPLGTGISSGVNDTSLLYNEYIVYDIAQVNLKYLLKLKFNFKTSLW

This test concerns the target T1, PARP1 (Homo sapiens, UniProt P09874).
T1 construct: purchased BPS Bioscience
The test can be described thus: PARP1 Biochemical Assay (BPS Bioscience kit, chemiluminescence). As to conditions: histone-coated plate, biotinilated NAD+, 25° C. for 60 min, luminescence, read-out: PARP 1 inhibition IC50. The method in brief: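 Human PARP1 (25–75 ng/well) with activated DNA was incubated with compound on histone-coated wells. Biotinylated NAD+ was added and the reaction ran 60 min at 25 °C. Ribosylation was detected by streptavidin-HRP chemiluminescence, % inhibition was normalised to enzyme-free and uninhibited controls, and IC50 was fitted from % inhibition versus concentration.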
For orientation: IC50 means the concentration at which inhibition is half-maximal. As to `COc1cc(F)ccc1N1CCN([C@H]2C=C(c3nc4c(c(=O)[nH]3)CC3(CC4)CC3)CC2)CC1` [Compound 133, (R)-2′-(3-(4-(4-fluoro-2-methoxyphenyl)piperazin-1-yl)cyclopent-1-en-1-yl)-7′,8′-dihydro-3′H-spiro[cyclopropane-1,6′-quinazolin]-4′(5′H)-one], the IC50 fell in the range of 1 to 500 nM.

As to `CNC(=O)c1ccc(N2CCN([C@H]3C=C(c4nc5c(c(=O)[nH]4)CC4(CC5)CC4)CC3)CC2)c(Cl)c1` [Compound 134, (R)-3-chloro-N-methyl-4-(4-(3-(4′-oxo-4′,5′,7′,8′-tetrahydro-3′H-spiro[cyclopropane-1,6′-quinazolin]-2′-yl)cyclopent-2-en-1-yl)piperazin-1-yl)benzamide], the IC50 was in the range of 1 to 500 nM.

Turning to `CCc1cnc(N2CCN([C@H]3C=C(c4nc5c(c(=O)[nH]4)CC4(CC5)CC4)CC3)CC2)nc1` [Compound 135, (R)-2′-(3-(4-(5-ethylpyrimidin-2-yl)piperazin-1-yl)cyclopent-1-en-1-yl)-7′,8′-dihydro-3′H-spiro[cyclopropane-1,6′-quinazolin]-4′(5′H)-one], the IC50 was in the range of 5000 to 500000 nM.

On to `Cc1ccc(N2CCN([C@H]3C=C(c4nc5c(c(=O)[nH]4)CC4(CC5)CC4)CC3)CC2)cc1C` [Compound 136, (R)-2′-(3-(4-(3,4-dimethylphenyl)piperazin-1-yl)cyclopent-1-en-1-yl)-7′,8′-dihydro-3′H-spiro[cyclopropane-1,6′-quinazolin]-4′(5′H)-one], for which the IC50 fell in the range of 501 to 5000 nM.

On to `Cc1cc(N2CCN([C@H]3C=C(c4nc5c(c(=O)[nH]4)CC4(CC5)CC4)CC3)CC2)ncc1F` [Compound 137, (R)-2′-(3-(4-(5-fluoro-4-methylpyridin-2-yl)piperazin-1-yl)cyclopent-1-en-1-yl)-7′,8′-dihydro-3′H-spiro[cyclopropane-1,6′-quinazolin]-4′(5′H)-one], for which the IC50 was in the range of 1 to 500 nM.

Turning to `O=c1[nH]c(C2=C[C@H](N3CCN(c4cc(Cl)ccc4F)CC3)CC2)nc2c1CC1(CC2)CC1` [Compound 138, (R)-2′-(3-(4-(5-chloro-2-fluorophenyl)piperazin-1-yl)cyclopent-1-en-1-yl)-7′,8′-dihydro-3′H-spiro[cyclopropane-1,6′-quinazolin]-4′(5′H)-one], the 50% inhibitory concentration (IC50) was 501 to 5000 nM.

Regarding `O=c1[nH]c(C2=C[C@H](N3CCN(c4c(F)cccc4Cl)CC3)CC2)nc2c1CC1(CC2)CC1` [Compound 139, (R)-2′-(3-(4-(2-chloro-6-fluorophenyl)piperazin-1-yl)cyclopent-1-en-1-yl)-7′,8′-dihydro-3′H-spiro[cyclopropane-1,6′-quinazolin]-4′(5′H)-one], the IC50 lay within 5000 to 500000 nM.

Take `Cc1cccc(N2CCN([C@H]3C=C(c4nc5c(c(=O)[nH]4)CC4(CC5)CC4)CC3)CC2)c1C` [Compound 140, (R)-2′-(3-(4-(2,3-dimethylphenyl)piperazin-1-yl)cyclopent-1-en-1-yl)-7′,8′-dihydro-3′H-spiro[cyclopropane-1,6′-quinazolin]-4′(5′H)-one]: the IC50 fell in the range of 501 to 5000 nM.

As for `Cc1cc(N2CCN([C@H]3C=C(c4nc5c(c(=O)[nH]4)CC4(CC5)CC4)CC3)CC2)ncc1Cl` [Compound 141, (R)-2′-(3-(4-(5-chloro-4-methylpyridin-2-yl)piperazin-1-yl)cyclopent-1-en-1-yl)-7′,8′-dihydro-3′H-spiro[cyclopropane-1,6′-quinazolin]-4′(5′H)-one], the IC50 lay within 1 to 500 nM.

For `O=c1[nH]c(C2=C[C@H](N3CCN(c4cncc(F)c4)CC3)CC2)nc2c1CC1(CC2)CC1` [Compound 142, (R)-2′-(3-(4-(5-fluoropyridin-3-yl)piperazin-1-yl)cyclopent-1-en-1-yl)-7′,8′-dihydro-3′H-spiro[cyclopropane-1,6′-quinazolin]-4′(5′H)-one], the IC50 lay within 1 to 500 nM.

As to `Cc1c(Cl)cccc1N1CCN([C@H]2C=C(c3nc4c(c(=O)[nH]3)CC3(CC4)CC3)CC2)CC1` [Compound 143, (R)-2′-(3-(4-(3-chloro-2-methylphenyl)piperazin-1-yl)cyclopent-1-en-1-yl)-7′,8′-dihydro-3′H-spiro[cyclopropane-1,6′-quinazolin]-4′(5′H)-one], the IC50 was 1 to 500 nM.

Turning to `Cc1ccc(C)c(N2CCN([C@H]3C=C(c4nc5c(c(=O)[nH]4)CC4(CC5)CC4)CC3)CC2)c1` [Compound 144, (R)-2′-(3-(4-(2,5-dimethylphenyl)piperazin-1-yl)cyclopent-1-en-1-yl)-7′,8′-dihydro-3′H-spiro[cyclopropane-1,6′-quinazolin]-4′(5′H)-one], the IC50 was 501 to 5000 nM.

Turning to `Cc1cccc(N2CCN([C@H]3C=C(c4nc5c(c(=O)[nH]4)CC4(CC5)CC4)CC3)CC2)n1` [Compound 145, (R)-2′-(3-(4-(6-methylpyridin-2-yl)piperazin-1-yl)cyclopent-1-en-1-yl)-7′,8′-dihydro-3′H-spiro[cyclopropane-1,6′-quinazolin]-4′(5′H)-one], the half-maximal inhibitory concentration (IC50) fell in the range of 1 to 500 nM.

Consider `O=c1[nH]c(C2=C[C@H](N3CCN(c4ncc(Cl)cc4F)CC3)CC2)nc2c1CC1(CC2)CC1` [Compound 146, (R)-2′-(3-(4-(5-chloro-3-fluoropyridin-2-yl)piperazin-1-yl)cyclopent-1-en-1-yl)-7′,8′-dihydro-3′H-spiro[cyclopropane-1,6′-quinazolin]-4′(5′H)-one], for which the IC50 was 1 to 500 nM.

`Cc1cc(N2CCN([C@H]3C=C(c4nc5c(c(=O)[nH]4)CC4(CC5)CC4)CC3)CC2)ccn1` [Compound 147, (R)-2′-(3-(4-(2-methylpyridin-4-yl)piperazin-1-yl)cyclopent-1-en-1-yl)-7′,8′-dihydro-3′H-spiro[cyclopropane-1,6′-quinazolin]-4′(5′H)-one]: the half-inhibitory concentration (IC50) was in the range of 1 to 500 nM.

Take `O=c1[nH]c(C2=C[C@H](N3CCN(c4ccc(-c5ccsc5)cc4)CC3)CC2)nc2c1CC1(CC2)CC1` [Compound 148, (R)-2′-(3-(4-(4-(thiophen-3-yl)phenyl)piperazin-1-yl)cyclopent-1-en-1-yl)-7′,8′-dihydro-3′H-spiro[cyclopropane-1,6′-quinazolin]-4′(5′H)-one]: the IC50 fell in the range of 501 to 5000 nM.

For the compound `O=c1[nH]c([C@H]2CC[C@H](N3CCN(c4ccc(F)cc4)CC3)C2)nc2c1CC1(CC2)CC1` [Compound 149, 2′-((1S,3S)-3-(4-(4-fluorophenyl)piperazin-1-yl)cyclopentyl)-7′,8′-dihydro-3′H-spiro[cyclopropane-1,6′-quinazolin]-4′(5′H)-one], the IC50 was in the range of 1 to 500 nM.

For `O=c1[nH]c([C@@H]2CC[C@H](N3CCN(c4ccc(F)cc4)CC3)C2)nc2c1CC1(CC2)CC1` [Compound 150, 2′-((1R,3S)-3-(4-(4-fluorophenyl)piperazin-1-yl)cyclopentyl)-7′,8′-dihydro-3′H-spiro[cyclopropane-1,6′-quinazolin]-4′(5′H)-one], the 50% inhibitory concentration (IC50) was 1 to 500 nM.

Consider `O=c1[nH]c([C@H]2CC[C@@H](N3CCN(c4ccc(F)cc4)CC3)C2)nc2c1CC1(CC2)CC1` [Compound 151, 2′-((1S,3R)-3-(4-(4-fluorophenyl)piperazin-1-yl)cyclopentyl)-7′,8′-dihydro-3′H-spiro[cyclopropane-1,6′-quinazolin]-4′(5′H)-one], for which the IC50 fell in the range of 1 to 500 nM.

Take `O=c1[nH]c([C@@H]2CC[C@@H](N3CCN(c4ccc(F)cc4)CC3)C2)nc2c1CC1(CC2)CC1` [Compound 152, 2′-((1R,3R)-3-(4-(4-fluorophenyl)piperazin-1-yl)cyclopentyl)-7′,8′-dihydro-3′H-spiro[cyclopropane-1,6′-quinazolin]-4′(5′H)-one]: the IC50 is 501 to 5000 nM.
